The subject of assay [1] is Botrytis cinerea. In words: microbe, parasite or virus in culture. In kind it is cell-based. Conditions: 72 hours. The source says: (§1) A synergistic effect exists whenever the action of an active ingredient combination is greater than the sum of the actions of the individual components. The action to be expected E for a given active ingredient combination obeys the so-called COLBY formula and can be calculated as follows (COLBY, S.R. “Calculating synergistic and antagonistic responses of herbicide combination”, Weeds, Vol. 15, pages 20-22; 1967): • ppm = milligrams of active ingredient (= a.i.) per liter of spray mixture, • X = % action by active ingredient (A) using p ppm of active ingredient, • Y = % action by active ingredient (B) using q ppm of active ingredient. • According to COLBY, the expected (additive) action of active ingredients (A)+(B) using p+q ppm of active ingredient is • [formula]
A standard description of the liquid culture tests is provided in Example 1.
Mycelia fragments or conidia suspensions of a fungus, prepared either freshly from liquid cultures of the fungus or from cryogenic storage, are directly mixed into nutrient broth. DMSO solutions of the test compound (max. 10 mg/mL) is diluted with 0.025% Tween20 by factor 50 and 10 µL of this solution is pipetted into a microtiter plate (96-well format). […] The test plates are incubated in the dark at 24° C. and 96% relative humidity (rh). The inhibition of fungal growth is determined photometrically and visually after 3 - 7 days, depending on the pathosystem, and percent antifungal activity relative to the untreated check is calculated.
Conidia of the fungus from cryogenic storage were directly mixed into nutrient broth (PDB potato dextrose broth). After placing a DMSO solution of the test compositions into a microtiter plate (96-well format), the nutrient broth containing the fungal spores was added.

Assay [2] deals with Alternaria solani. As to the kind of experiment: microbe, parasite or virus in culture. The class given is cell-based.
From the text: as §1
The compositions according to the invention are tested for their biological (fungicidal) activity as dimethylsulfoxide (DMSO) solutions using one or more of the following protocols (Examples 1-1 and 1-2). A standard description of the liquid culture tests is provided in Example 1.
Mycelia fragments or conidia suspensions of a fungus, prepared either freshly from liquid cultures of the fungus or from cryogenic storage, are directly mixed into nutrient broth. DMSO solutions of the test compound (max. 10 mg/mL) is diluted with 0.025% Tween20 by factor 50 and 10 µL of this solution is pipetted into a microtiter plate (96-well format). The nutrient broth containing the fungal spores/mycelia fragments is then added to give an end concentration of the tested compound. The test plates are incubated in the dark at 24° C. and 96% relative humidity (rh). […]
Conidia of the fungus from cryogenic storage were directly mixed into nutrient broth (PDB potato dextrose broth). After placing a DMSO solution of the test compositions into a microtiter plate (96-well format) the nutrient broth containing the fungal spores was added.

Numbered stars: 1 amine (or outer) side, 2 acyl side, 3 side chain; on linkers, the order of the positions; unused ones are H or OH. Square brackets hold non-standard residues; d marks the D form. Peptide text beside a SMILES is read from it. ξ: configuration not given here. ξNMeVal(3-OH) = CNC(C(=O)O)C(C)(C)O; NMeF = CN[CH](Cc1ccccc1)C(=O)O; X1 = CCC(C)C(O[*:1])C(=O)[*:2]; NMeV = CN[CH](C(=O)O)C(C)C

In the case of `CC(O)(Cn1cncn1)c1ccc(Oc2ccc(Cl)cc2)cc1C(F)(F)F` (stereo not drawn) [Mefentrifluconazole, mefentrifluconazole, reference compound], the “(B) inhibition” value in assay [1] (Mefentrifluconazole 0.0250 ppm alone) came to 27%.

Regarding `C=CCOC(Cn1ccnc1)c1ccc(Cl)cc1Cl` (stereo not drawn) [Imazalil, imazalil, reference compound], the inhibition at 0.0625 ppm in assay [1] (Botrytis cinerea, Imazalil 0.0625 ppm alone, read-out: (B) inhibition) was 5%. Further, the inhibition at 0.125 ppm in assay [1] (Botrytis cinerea, Imazalil 0.1250 ppm alone, read-out: (B) inhibition) turned out to be 22%.

`CCC(C)C1NC(=O)C2CCCN2C(=O)C(Cc2ccccc2)N(C)C(=O)C(Cc2ccccc2)NC(=O)C(C(C)C)N(C)C(=O)C(C(C)CC)OC(=O)C(C(C)(C)O)N(C)C(=O)C(CC(C)C)NC(=O)C(C(C)C)N(C)C1=O` (stereo not drawn) [Aureobasidin A] (cyclo([ξNMeVal(3-OH)][X1][NMeV]F[NMeF]PI[NMeV]L); configuration not given here): the “(A) inhibition” value in assay [1] (Aureobasidin A 0.0025 ppm alone (mefentrifluconazole table)) turned out to be 8%; in assay [1] (Aureobasidin A 0.0050 ppm alone (mefentrifluconazole table)) it was 7%; in assay [1] (Aureobasidin A 0.01 ppm alone (imazalil table)), 27%; in assay [1] (Aureobasidin A 0.02 ppm alone (fenhexamid table)) it was 53%; in assay [1] (Aureobasidin A 0.02 ppm alone (imazalil table)), 46%; in assay [1] (Aureobasidin A 0.0200 ppm alone (mefentrifluconazole table)) it was 22%. Further, the “(A) inhibition” value in assay [2] (Aureobasidin A 0.0001 ppm alone, growth determined photometrically after 48 hours) worked out at 0%; in assay [2] (Aureobasidin A 0.0002 ppm alone, 48 hours) it was 11%; in assay [2] (Aureobasidin A 0.0006 ppm alone, 48 hours), 0%; in assay [2] (Aureobasidin A 0.0012 ppm alone, 48 hours), 0%; in assay [2] (Aureobasidin A 0.0025 ppm alone, 48 hours), 0%; in assay [2] (Aureobasidin A 0.0050 ppm alone, 48 hours) it was 0%. The “(A) inhibition” value in assay [2] (Aureobasidin A 0.04 ppm alone (fenhexamid table), 48 hours) was found to be 40%.

As to `CC1COC(Cn2cncn2)(c2ccc(Oc3ccc(Cl)cc3)cc2Cl)O1` (stereo not drawn) [Difenoconazole, difenoconazole, reference compound], the inhibition at 0.0156 ppm in assay [2] (Alternaria solani, Difenoconazole 0.0156 ppm alone, 48 hours, read-out: (B) inhibition) was determined as 30%. Besides, in assay [2] (Alternaria solani, Difenoconazole 0.0313 ppm alone, 48 hours, read-out: (B) inhibition), the inhibition at 0.0313 ppm was determined as 43%. The inhibition at 0.0625 ppm in assay [2] (Alternaria solani, Difenoconazole 0.0625 ppm alone, 48 hours, read-out: (B) inhibition) was 65%.

As to `CC1(C(=O)Nc2ccc(O)c(Cl)c2Cl)CCCCC1` [Fenhexamid, fenhexamid, reference compound], the inhibition at 0.0125 ppm in assay [1] (Botrytis cinerea, Fenhexamid 0.0125 ppm alone, read-out: (B) inhibition) stood at 2%. In assay [2] (Alternaria solani, Fenhexamid 0.10 ppm alone, 48 hours, read-out: (B) inhibition), the inhibition at 0.1 ppm was 0%.
